Measurements taken from US20150265691A1 (priority 2006, published 2015).
Values joined by “and” are separate entries in the source; they are usually repeats but may differ in a detail not shown here. Equal values may be shown once.

Columns and labels:
Type in all cases: binding
[1] = test system: rabbit anti-anthrax spore IgG
[2] = test system: rabbit anti-B. anthracis spore polyclonal IgG antibodies
[3] = test system: rabbit anti-anthrax spore IgG; remark: listed apart in the source
[4] = test system: rabbit anti-B. anthracis spore polyclonal IgG antibodies; remark: listed apart in the source

With `COC(=O)CCCCCO[C@@H]1O[C@@H](C)[C@H](O)[C@@H](O)[C@H]1O[C@@H]1O[C@@H](C)[C@H](O)[C@@H](O[C@@H]2O[C@H](C)[C@@H](NC(=O)CC(C)(C)O)[C@H](O)[C@H]2OC)[C@H]1O` [Saccharide 3, 5-(Methoxycarbonyl)pentyl 4-(3-hydroxy-3-methylbutanamido)-2-O-methyl-4,6-dideoxy-β-D-glucopyranosyl-(1→3)-α-L-rhamnopyranosyl-(1→2)-α-L-rhamnopyranoside] the IC50 [1] was 0.016 nM, the relative inhibiting powers [1] was 1.00 and the “IgG signal detected by glycan arrays (n = 3) Mean” value (“IgG signal detected” for short) [2] was 2.73. The “antibody reactivity detected by glycan arrays” value (from here on “antibody reactivity detected”) [2] was “significant amounts of IgG antibodies”.
With `COC(=O)CCCCCO[C@@H]1O[C@@H](C)[C@H](O)[C@@H](O)[C@H]1O[C@@H]1O[C@@H](C)[C@H](O)[C@@H](O[C@@H]2O[C@@H](C)[C@H](O)[C@@H](O[C@@H]3O[C@H](C)[C@@H](NC(=O)CC(C)(C)O)[C@H](O)[C@H]3OC)[C@H]2O)[C@H]1O` [Saccharide 5, 5-(Methoxycarbonyl)pentyl 4-(3-hydroxy-3-methylbutanamido)-2-O-methyl-4,6-dideoxy-β-D-glucopyranosyl-(1→3)-α-L-rhamnopyranoyl-(1→3)-α-L-rhamnopyranosyl-(1→2)-α-L-rhamnopyranoside] the “I^50” value [3] was 0.18 nmol, the “IgG signal detected” value [2] was 5.19 and the “antibody reactivity detected” value [2] was “significant amounts of IgG antibodies”.
With `COC(=O)CCCCCO[C@@H]1O[C@@H](C)[C@H](O)[C@@H](O)[C@H]1O[C@@H]1O[C@@H](C)[C@H](O)[C@@H](O[C@@H]2O[C@@H](C)[C@H](O)[C@@H](O)[C@H]2O)[C@H]1O` [Saccharide 17, 5-(Methoxycarbonyl)pentyl α-L-rhamnopyranosyl-(1→3)-α-L-rhamnopyranosyl-(1→2)-α-L-rhamnopyranoside] the “IgG reactivities (Ratio of Sg./bg.) Mean” value [4] was 1.04 and 0.97 and 1.00 and 0.99 and the “IgG signal detected” value [2] was 0.98.
`COC(=O)CCCCCO[C@H]1O[C@@H](C)[C@H](O)[C@@H](O)[C@H]1O[C@@H]1O[C@@H](C)[C@H](O)[C@@H](O[C@@H]2O[C@@H](C)[C@H](O)[C@@H](O[C@@H]3O[C@H](C)[C@@H](NC(=O)CC(C)(C)O)[C@H](O)[C@H]3OC)[C@H]2O)[C@H]1O` [Saccharide 4, 5-(Methoxycarbonyl)pentyl 4-(3-hydroxy-3-methylbutanamido)-2-O-methyl-4,6-dideoxy-β-D-glucopyranosyl-(1→3)-α-L-rhamnopyranoyl-(1→3)-α-L-rhamnopyranosyl-(1→2)-β-L-rhamnopyranoside] was tested, and the “I^50” value [3] was 0.23 nmol, the “IgG signal detected” value [2] was 5.16 and the “antibody reactivity detected” value [2] was “significant amounts of IgG antibodies”.
`CO[C@H]1O[C@H](C)[C@@H](NC(=O)[C@@H](O)CCO)[C@H](O)[C@@H]1O[C@H]1O[C@H](C)[C@@H](NC(=O)[C@@H](O)CCO)[C@H](O)[C@@H]1O[C@H]1O[C@H](C)[C@@H](NC(=O)[C@@H](O)CCO)[C@H](O)[C@@H]1O[C@H]1O[C@H](C)[C@@H](NC(=O)[C@@H](O)CCO)[C@H](O)[C@@H]1OC` [Saccharide 28, Methyl 2-O-methyl-4,6-dideoxy-4-(3-deoxy-L-glycero-tetronamido)-<-D-mannopyranosyl-(1→2)-bis-[4,6-dideoxy-4-(3-deoxy-L-glycero-tetronamido)-<-D-mannopyranosyl-(1→2)]-4,6-dideoxy-4-(3-deoxy-L-glycero-tetronamido)-<-D-mannopyranoside] was tested, and the “IgG signal detected” value [2] was 1.07.
In the case of `CO[C@H]1O[C@H](CO)[C@@H](O)[C@H](O[C@H]2O[C@H](CO)[C@H](O)[C@H](O)[C@H]2O[C@@H]2O[C@@H](C)[C@H](O)[C@@H](O)[C@H]2O)[C@H]1NC(C)=O` [Saccharide 23, Methyl <-L-rhamnopyranosyl-(1→2)-<-D-galactopyranosyl-(1→3)-2-acetamido-2-deoxy-<-D-glucopyranoside], the “IgG signal detected” value [2] is reported as 1.01.
In the case of `CO[C@@H]1O[C@@H](C)[C@H](O)[C@@H](O[C@@H]2O[C@@H](C)[C@H](O)[C@@H](O)[C@H]2O)[C@H]1O` [Saccharide 24, Methyl <-L-rhamnopyranosyl-(1→3)-<-L-rhamnopyranoside, reference compound], the “IgG signal detected” value [2] is reported as 1.02.
With `COC(=O)CCCCCO[C@@H]1O[C@@H](C)[C@H](O)[C@@H](O[C@@H]2O[C@H](C)[C@@H](NC(=O)CC(C)(C)O)[C@H](O)[C@H]2OC)[C@H]1O` [Saccharide 2, 5-(Methoxycarbonyl)pentyl 4-(3-hydroxy-3-methylbutanamido)-2-O-methyl-4,6-dideoxy-β-D-glucopyranosyl-(1→3)-α-L-rhamnopyranoside] the IC50 [1] was 0.019 nM, the relative inhibiting powers [1] was 1.18 and the “IgG signal detected” value [2] was 1.65. The “antibody reactivity detected” value [2] was “marginally reactive”.
For `COC(=O)CCCCCO[C@H]1O[C@@H](C)[C@H](O)[C@@H](O)[C@H]1O` [Saccharide 15, 5-(Methoxycarbonyl)pentyl β-L-rhamnopyranoside], the “IgG signal detected” value [2] was 0.95.
For `C[C@H](O)[C@H](O)[C@@H](O)[C@@H](O)C=O` [Saccharide 6, L-Rhamnose], the “IgG signal detected” value [2] was 1.03.
In the case of `O=C[C@H](O)[C@H](O)[C@@H](O)[C@@H](O)CO` [Saccharide 13, L-Mannose], the “IgG signal detected” value [2] is reported as 1.06.
“isomaltopentose [IM5, reference compound]” was tested, and the “inhibition of antibody reactivity with anthrose-tetrasaccharide” value [1] was “no inhibition”.
For `O=C[C@H](O)[C@@H](O)[C@@H](O)[C@H](O)CO` [Saccharide 8, D-Galactose], the “IgG signal detected” value [2] was 1.06.
For `COC(=O)CCCCCO[C@@H]1O[C@H](C)[C@@H](NC(=O)CC(C)(C)O)[C@H](O)[C@H]1OC` [Saccharide 1, 5-(Methoxycarbonyl)pentyl 4-(3-hydroxy-3-methylbutanamido)-2-O-methyl-4,6-dideoxy-β-D-glucopyranoside], the “blocking of antibody reactivity with anthrose-containing tri- and tetra-saccharides” value [4] was “blocked the antibody reactivity”, the “inhibition of other antibody reactivities: binding to isolichenin and Pn 23 polysaccharide” value [4] was “no significant inhibition” and the “I^50” value [3] was 7.3 nmol. For the same compound, the IC50 [1] was 0.688 nM, the relative inhibiting powers [1] was 43.3 and the “IgG signal detected” value [2] was 1.44. For the same compound, the “antibody reactivity detected” value [2] was “marginally reactive”.
For Nigerose [reference compound], the “inhibition of antibody reactivity with anthrose-tetrasaccharide” value [1] was “no inhibition”.
